Experimental data taken from patent US20260198497A1, “A BENZENE RING-SUBSTITUTED PYRIMIDINECARBOXYLIC ACID COMPOUND, PREPARATION METHOD THEREFOR, HERBICIDAL COMPOSITION AND APPLICATION THEREOF” (QINGDAO KINGAGROOT CHEMICAL COMPOUND CO., LTD., priority 2023, published 2026).

Tested on: Veronica
Test: Post-emergence test on weeds
Assay type: in vivo
Parameters: key: 0 = no effect, 9 = completely dead (levels by growth control rate)
Conditions: 30 g a.i./ha, 3 weeks after application
Text: The criteria for activity levels of plant damage (i.e., growth control rate) are as follows: • Level 9: completely dead; • Level 8: growth control rate is greater than or equal to 90% and less than 100%; • Level 7: growth control rate is greater than or equal to 80% and less than 90%; • Level 6: growth control rate is greater than or equal to 70% and less than 80%; • Level 5: growth control rate is greater than or equal to 50% and less than 70%; • Level 4: growth control rate is greater than or equal to 30% and less than 50%; • Level 3: growth control rate is greater than or equal to 20% and less than 30%; • Level 2: growth control rate is greater than or equal to 10% and less than 20%; • Level 1: growth control rate is less than 10%; • Level 0: no effect.
The above growth control rates are fresh weight control rates.
Monocotyledonous and dicotyledonous weed seeds (Descurainia sophia, Capsella bursa-pastoris, Abutilon theophrasti, Galium spurium, Stellaria media, Lithospermum arvense, Rorippa indica, Alopecurus aequalis, Alopecurus japonicus, Eleusine indica, Beckmannia syzigachne, Sclerochloa dura, Erigeron canadensis, Phleum paniculatum, Veronica, Bromus japonicus, Aegilops tauschii, Phalaris arundinacea, Amaranthus retroflexus, Chenopodium, Commelina communis, Cichorium endivia, Convolvulus arvensis, Cirsium arvense, Solanum nigrum, Acalypha australis, Digitaria sanguinalis, Echinochloa crusgalli, Setaria viridis, Setaria pumila, Leptochloa chinensis, Monochoria vaginalis, Sagittaria trifolia, Schoenoplectiella juncoides, Cyperus rotundus, Cyperus iria, Cyperus difformis, Fimbristylis, Portulaca oleracea, Xanthium sibiricum, Ipomoea nil, Eschenbachia japonica, etc.) and major crop seeds (wheat, maize, paddy rice, soybean, cotton, oilseed rape, millet, sorghum, potato, sesame, castor plant, Chinese cabbage, radish, etc.) were placed in plastic pots filled with soil and then covered with 0.5-2 cm of soil to allow them to grow in a favorable greenhouse environment. Two weeks after sowing, the test plants were treated at the stage of 2-3 leaves. The test compounds of the present invention were individually dissolved with acetone, then added with Tween® 80, with 1.5 L/ha of methyl oleate emulsifiable concentrate as a synergist, diluted into solution of a certain concentration using a certain amount of water, and sprayed to plants using a spray tower. After drug application, the experimental results on weeds were collected after 3 weeks of cultivation in a greenhouse. The compounds were applied at 120, 60, 30, and 15 g a.i./ha in triplicate, and the results were averaged.

Compound	activity level of plant damage (growth control rate), Veronica
CCOCCOC(=O)c1nc(-c2ccc(C(F)(F)F)c(OC)c2F)nc(N)c1OC [Compound 21]	9
COc1c(N)nc(-c2ccc(C(F)(F)F)c(OC)c2F)nc1C(=O)OCC(F)F [Compound 61]	9
COC(=O)c1nc(-c2ccc(Br)c(OC)c2F)nc(N)c1OC [Compound 201]	9
COc1c(N)nc(-c2ccc(C(F)(F)F)c(OC)c2F)nc1C(=O)OCCC(F)(F)F [Compound 64]	9
COc1c(N)nc(-c2ccc(Br)c(OC)c2F)nc1C(=O)OCC1CCCO1 (stereo not shown) [Compound 218]	9
COc1c(N)nc(-c2ccc(C(F)(F)F)c(OC)c2F)nc1C(=O)OCCCF [Compound 63]	9
CCCOC(=O)c1nc(-c2ccc(C(F)(F)F)c(OC)c2F)nc(N)c1OC [Compound 25]	9
COc1cc(-c2nc(N)c(OC)c(C(=O)OCc3cccnc3)n2)ccc1C(F)(F)F [Compound 151]	9
COc1c(N)nc(-c2ccc(Br)c(OC)c2F)nc1C(=O)OC(C)C [Compound 204]	9
COc1c(N)nc(-c2ccc(C(F)(F)F)c(OC)c2F)nc1C(=O)OCCBr [Compound 60]	9
COC(=O)C(C)OC(=O)c1nc(-c2ccc(C(F)(F)F)c(OC)c2F)nc(N)c1OC (stereo not shown) [Compound 82]	9
COCCOCCOC(=O)c1nc(-c2ccc(C(F)(F)F)c(OC)c2F)nc(N)c1OC [Compound 23]	9
COc1c(N)nc(-c2ccc(C(F)(F)F)c(OC)c2F)nc1C(=O)OCC(C)F (stereo not shown) [Compound 191]	9
C=CCOC(=O)c1nc(-c2ccc(C(F)(F)F)c(OC)c2F)nc(N)c1OC [Compound 52]	9
COc1c(N)nc(-c2ccc(C(F)(F)F)c(OC)c2F)nc1C(=O)OCC(OC)OC [Compound 76]	9
CCOC(=O)OC(C)OC(=O)c1nc(-c2ccc(C(F)(F)F)c(OC)c2F)nc(N)c1OC (stereo not shown) [Compound 93]	9
COc1c(N)nc(-c2ccc(C(F)(F)F)c(OC)c2F)nc1C(=O)OC(C)C [Compound 26]	9
COc1c(N)nc(-c2ccc(C(F)(F)F)c(OC)c2F)nc1C(=O)OCc1ccn(C)n1 [Compound 193]	9
COc1c(N)nc(-c2ccc(C(F)(F)F)c(OC)c2F)nc1C(=O)[O-].[K+] [Compound 199]	9
CCCOCCOC(=O)c1nc(-c2ccc(C(F)(F)F)c(OC)c2F)nc(N)c1OC [Compound 22]	9
COc1c(N)nc(-c2ccc(C(F)(F)F)c(OC)c2F)nc1C(=O)OCCO [Compound 73]	9
COc1c(N)nc(-c2ccc(Br)c(OC)c2F)nc1C(=O)OCC#N [Compound 209]	9
COc1c(N)nc(-c2ccc(Br)c(OC)c2F)nc1C(=O)OCC(F)F [Compound 205]	9
COc1c(N)nc(-c2ccc(C(F)(F)F)c(OC)c2F)nc1C(=O)OCCSC [Compound 100]	9
COc1cc(-c2nc(N)c(OC)c(C(=O)SC)n2)ccc1C(F)(F)F [Compound 155]	9
COc1c(N)nc(-c2ccc(C(F)(F)F)c(OC)c2F)nc1C(=O)Oc1ccccc1 [Compound 129]	9

Compound	activity level of plant damage (growth control rate), Veronica
C#CCOC(=O)c1nc(-c2ccc(C(F)(F)F)c(OC)c2F)nc(N)c1OC [Compound 57]	9
COc1c(N)nc(-c2ccc(C(F)(F)F)c(OC)c2F)nc1C(=O)OCC1CC1 [Compound 117]	9
COc1c(N)nc(-c2ccc(C(F)(F)F)c(OC)c2F)nc1C(=O)O [Compound 1]	9
COc1c(N)nc(-c2ccc(Br)c(OC)c2F)nc1C(=O)ON=C(C)C [Compound 210]	9
CCOC(=O)COC(=O)c1nc(-c2ccc(C(F)(F)F)c(OC)c2F)nc(N)c1OC [Compound 81]	9
COc1c(N)nc(-c2ccc(C(F)(F)F)c(OC)c2F)nc1C(=O)OCC1CCCO1 (stereo not shown) [Compound 121]	9
COc1cc(-c2nc(N)c(OC)c(C(=O)OCc3ccncc3)n2)ccc1C(F)(F)F [Compound 152]	9
COc1c(N)nc(-c2ccc(C(F)(F)F)c(OC)c2F)nc1C(=O)OCCCl [Compound 59]	9
COc1c(N)nc(-c2ccc(Br)c(OC)c2F)nc1C(=O)OCCSC [Compound 214]	9
COc1c(N)nc(-c2ccc(C(F)(F)F)c(OC)c2F)nc1C(=O)OC1CCCC1 [Compound 119]	9
CCSC(=O)c1nc(-c2ccc(Br)c(OC)c2F)nc(N)c1OC [Compound 222]	9
CCCOC(=O)c1nc(-c2ccc(Br)c(OC)c2F)nc(N)c1OC [Compound 203]	9
COC(=O)c1nc(-c2ccc(C(F)(F)F)c(OC(F)F)c2F)nc(N)c1OC [Compound 247]	9
COc1c(N)nc(-c2ccc(C(F)(F)F)c(OC)c2F)nc1C(=O)ON=C(C)C(C)(C)C [Compound 192]	9
COc1c(N)nc(-c2ccc(C(F)(F)F)c(OC)c2F)nc1C(=O)OCC#N [Compound 103]	9
COc1c(N)nc(-c2ccc(C(F)(F)F)c(OC)c2F)nc1C(=O)OCc1ccccc1 [Compound 130]	9
COc1c(N)nc(-c2ccc(C(F)(F)F)c(OC)c2F)nc1C(=O)OCc1ccccc1F [Compound 133]	9
COc1cc(-c2nc(N)c(OC)c(C(=O)OCc3ccccn3)n2)ccc1C(F)(F)F [Compound 150]	9
COc1c(N)nc(-c2ccc(C(F)(F)F)c(OC)c2F)nc1C(=O)[O-].[Na+] [Compound 200]	9
COc1c(N)nc(-c2ccc(Br)c(OC)c2F)nc1C(=O)OCc1ccccc1 [Compound 219]	9
CCSC(=O)c1nc(-c2ccc(C(F)(F)F)c(OC)c2)nc(N)c1OC [Compound 156]	9
COCOC(=O)c1nc(-c2ccc(C(F)(F)F)c(OC)c2F)nc(N)c1OC [Compound 72]	9
COCCSC(=O)c1nc(-c2ccc(C(F)(F)F)c(OC)c2F)nc(N)c1OC [Compound 190]	9
COCCOC(=O)c1nc(-c2ccc(Br)c(OC)c2F)nc(N)c1OC [Compound 212]	9
CCOC(=O)c1nc(-c2ccc(Br)c(OC)c2F)nc(N)c1OC [Compound 202]	9
COc1c(N)nc(-c2ccc(C(F)(F)F)c(OC)c2F)nc1C(=O)OCCF [Compound 58]	9
